Ends that are not written are not given here.
Experiments:
T2 cells = test: Peptide loading of T2 cells with KLK3 peptide isotopologues; absolute pMHC copy numbers by BB7.2 immunoprecipitation and LC/MS; type: cell-based, human; details: T2 cells loaded at 0.1 μg/mL (~81 nM) peptide, 2 h incubation
Method: In order to translate detected relative ion intensities into an absolute measure, isotopologue-specific external calibration curves were acquired in two technical replicates. Therefore, a total of six different isotopologues (Table 1; reconstituted as described above) were mixed to a final concentration of 20 pmol μL^−1. This stock was subsequently further titrated in 5% formic acid prior to LC/MS analysis. The internal standard KLK3 peptide_L2P5 was added at a constant amount of 5 fmol per LC/MS injection. Samples were separated by reversed-phase chromatography (nanoAcquity UPLC, Waters, Milford, Mass.) using ACQUITY UPLC BEH C18 columns (75 μm×250 mm, Waters, Milford, Mass.) and a gradient ranging from 1 to 34.5% ACN over the course of 35 min. Mass spectrometry was performed on an online coupled Orbitrap Fusion Tribrid mass spectrometer (Thermo Fisher Scientific, Waltham, Mass.) in scheduled parallel reaction monitoring (sPRM) mode following collisional-induced dissociation (CID) of selected precursor ions. Subsequent peak boundary integration was performed in Skyline (MacLean et al., 2010).
The T2 cell line was obtained from DSMZ (ACC 598, lot #2). Cells were cultured in RPMI-1640 medium (Gibco, #A1049101) supplemented with 10% heat-inactivated FBS (Gibco, #10270106) in absence of antibiotics, at 37° C. in a humidified atmosphere containing 5% C02. […]

T98G cells = test: Peptide loading of T98G cells with PRAME peptide isotopologues; absolute copy numbers by AbsQuant (immunoprecipitation and LC/MS); type: cell-based; details: peptide-loaded T98G cells; 1 nM is ~0.001 μg/mL
Method: (§1) In order to translate detected relative ion intensities into an absolute measure, isotopologue-specific external calibration curves were acquired in two technical replicates. Therefore, a total of seven different isotopologues (Table 2; reconstituted as described above) were mixed to a final concentration of 20 pmol μL^−1. This stock was subsequently further titrated in 5% formic acid prior to LC/MS analysis. The internal standard PRAME peptide_L3L6 was added at a constant amount of 100 fmol per LC/MS injection. Samples were separated by reversed-phase chromatography (nanoAcquity UPLC, Waters, Milford, Mass.) using ACQUITY UPLC BEH C18 columns (75 μm×250 mm, Waters, Milford, Mass.) and a gradient ranging from 1 to 34.5% ACN over the course of 35 min. […]
(§2) The functional analysis of PRAME-loaded T98G cells was assessed in a co-culture setup. […]
(§3) In brief, 2.5×10^7 T98G (or 2×10^7 Hs695T) cells were incubated in 40 ml DMEM+10% FCS supplemented with the respective concentration of peptide for 2 h at 37° C., 5% C02. […] By adding specific substrate, the amount of LDH present in the supernatant was determined by measuring the colorimetric signal in a microplate reader. […]

Hs695T cells = test: Peptide loading of Hs695T cells with PRAME peptide isotopologues; absolute copy numbers by AbsQuant (immunoprecipitation and LC/MS); type: cell-based; details: peptide-loaded Hs695T cells; 1 nM is ~0.001 μg/mL
Method: as §1, §2, §3

Row | Substance | absolute peptide abundance (T2 cells) | loading concentration from which copy numbers are detectable (T98G cells) | loading concentration from which copy numbers are detectable (Hs695T cells)
1 | SL*F*HPEDTGQV* [KLK3 peptide L2F3V 11] | ~10,000 copies per cell |  | 
2 | SLLQHLIGL (not fully specified; listed as Homo sapiens) [PRAME peptide, PRAME-derived MHC-restricted peptide, loaded as isotopologues] |  | ≥ 1 nM | ≥ 1 nM

From patent US20230024554A1, “METHOD OF CHARACTERIZING THE BINDING CHARACTERISTICS BETWEEN A PEPTIDE OF INTEREST AND MHC MOLECULES” (Immatics Biotechnologies GmbH, priority 2021, published 2023)
